In article PMC5309800, “Natural amines inhibit activation of human plasmacytoid dendritic cells through CXCR4 engagement” (Nature Communications, 2017):

Assays:
[1] = biological target: T1, CXC chemokine receptor 4 (CXCR4) (Homo sapiens, UniProt P61073); assay: Tag-lite TR-FRET competition with CXCL12-red on HALO-CXCR4 cells; also inhibits […]5 antibody binding on Jurkat cells; assay type: cell-based
[2] = biological target: T1, CXC chemokine receptor 4 (CXCR4); assay: cell-based

T1 sequence (P61073 whole entry): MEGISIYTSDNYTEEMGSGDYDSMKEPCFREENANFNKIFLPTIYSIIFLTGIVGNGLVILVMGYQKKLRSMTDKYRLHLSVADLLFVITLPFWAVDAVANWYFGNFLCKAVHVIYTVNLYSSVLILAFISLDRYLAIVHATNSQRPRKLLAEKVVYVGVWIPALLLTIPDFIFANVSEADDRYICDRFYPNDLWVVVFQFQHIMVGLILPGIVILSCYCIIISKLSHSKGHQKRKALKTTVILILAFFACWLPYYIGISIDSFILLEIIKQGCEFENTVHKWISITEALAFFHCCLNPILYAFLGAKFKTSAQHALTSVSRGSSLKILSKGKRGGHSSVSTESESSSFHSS

Compound	Ki [1] [µM]	Ki [2] [µM]
NC(=NCc1ccc(Cl)cc1)SCCCc1cnc[nH]1 [CB, clobenpropit]	1.5	
NCCc1c[nH]cn1 [HA, histamine]		~26.5
